Measured values as given in patent publication US11053204B2, “Pyrimidinyloxy benzene derivatives as herbicides” (FMC Corporation, priority 2015, dated 2021).

Columns and labels:
Assay type in all cases: in vivo
[1] = test system: Italian ryegrass (Lolium multiflorum); assay: Test A preemergence, visual injury rating; details: 0 to 100 scale (0 no effect, 100 complete control)
Method in brief: (§1)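 Pre- and postemergence greenhouse screen. Soil: loam + sand. Spray carrier: solvent mixture, non-phytotoxic, with surfactant. Post timing at 1–2 leaves, height 2–10 cm. Readout: visual injury on a 0–100 scale roughly 10 days after application, untreated plants as reference.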

[2] = test system: giant foxtail (Setaria faberii); assay: Test A preemergence, visual injury rating; details: 0 to 100 scale (0 no effect, 100 complete control)
Method in brief: as §1

[3] = test system: pigweed (Amaranthus retroflexus); assay: Test A preemergence, visual injury rating; details: 0 to 100 scale (0 no effect, 100 complete control)
Method in brief: as §1

[4] = test system: ragweed (common ragweed, Ambrosia elatior); assay: Test A preemergence, visual injury rating; details: 0 to 100 scale (0 no effect, 100 complete control)
Method in brief: as §1

[5] = test system: crabgrass, large (large crabgrass, Digitaria sanguinalis); assay: Test C preemergence, plant response rating; details: Preemergence
Method in brief: (§2)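 Preemergence: seeds sown in loam–sand blend or silt loam and sprayed with test chemicals in a non-phytotoxic surfactant-containing solvent. Postemergence: potted plants at 2–18 cm (1–4-leaf stage) sprayed with the same formulation. After 13–15 d in greenhouse, visual rating versus controls on 0 (no effect) to 100 (complete control) scale.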

[6] = test system: lambsquarters (Chenopodium album); assay: Test C preemergence, plant response rating; details: Preemergence
Method in brief: as §2

[7] = test system: velvetleaf (Abutilon theophrasti); assay: Test C preemergence, plant response rating; details: Preemergence
Method in brief: as §2

[8] = test system: oilseed rape (Brassica napus); assay: Test C preemergence, plant response rating; details: Preemergence
Method in brief: as §2

[9] = test system: morningglory (Ipomoea coccinea); assay: Test C preemergence, plant response rating; details: Preemergence
Method in brief: as §2

[10] = test system: foxtail, giant (giant foxtail, Setaria faberii); assay: Test C preemergence, plant response rating; details: Preemergence
Method in brief: as §2

[11] = test system: waterhemp (common waterhemp, Amaranthus rudis); assay: Test C preemergence, plant response rating; details: Preemergence
Method in brief: as §2

[12] = test system: blackgrass (Alopecurus myosuroides); assay: Test C preemergence, plant response rating; details: Preemergence
Method in brief: as §2

soybean (Glycine max) = assay: Test C preemergence, plant response rating; details: Preemergence
Method in brief: as §2

corn (Zea mays) = assay: Test C preemergence, plant response rating; details: Preemergence
Method in brief: as §2

[13] = test system: ragweed (common ragweed, Ambrosia elatior); assay: Test C preemergence, plant response rating; details: Preemergence
Method in brief: as §2

[14] = test system: ryegrass, Italian (Italian ryegrass, Lolium multiflorum); assay: Test C preemergence, plant response rating; details: Preemergence
Method in brief: as §2

[15] = test system: wheat (winter wheat, Triticum aestivum); assay: Test C preemergence, plant response rating; details: Preemergence
Method in brief: as §2

[16] = test system: nutsedge, yellow (yellow nutsedge, Cyperus esculentus); assay: Test C preemergence, plant response rating; details: Preemergence
Method in brief: as §2

C=C(Br)COC(=O)c1c(Br)cccc1Oc1ncc(Cl)cn1 [Compound 61]
10: Plant response rating, Crabgrass, Large ([5]; 31 g ai/ha, scale 0 to 100) | Plant response rating, Oilseed Rape ([8]; 125 g ai/ha, scale of 0 to 100) | Plant response rating, Soybean (soybean (Glycine max); 125 g ai/ha, scale of 0 to 100) | Plant response rating, Corn (corn (Zea mays); 62 g ai/ha, scale of 0 to 100) | Plant response rating, Wheat ([15]; 125 g ai/ha, scale of 0 to 100)
65: Plant response rating, Foxtail, Giant ([10]; 125 g ai/ha, scale of 0 to 100)
80: Ryegrass, Italian plant response rating ([1]; 500 g ai/ha)
90: Plant response rating, Crabgrass, Large ([5]; 125 g ai/ha, scale of 0 to 100) | Plant response rating, Waterhemp ([11]; 62 g ai/ha, scale 0 to 100)
15: Plant response rating, Lambsquarters ([6]; 31 g ai/ha, scale 0 to 100)
5: Plant response rating, Lambsquarters ([6]; 16 g ai/ha, scale 0 to 100) | Plant response rating, Velvetleaf ([7]; 125 g ai/ha, scale of 0 to 100) | Plant response rating, Velvetleaf ([7]; 31 g ai/ha, scale 0 to 100) | Plant response rating, Velvetleaf ([7]; 62 g ai/ha, scale 0 to 100) | Plant response rating, Blackgrass ([12]; 125 g ai/ha, scale of 0 to 100) | Plant response rating, Ragweed ([13]; 62 g ai/ha, scale 0 to 100) | Plant response rating, Ryegrass, Italian ([14]; 125 g ai/ha, scale of 0 to 100) | Plant response rating, Wheat ([15]; 62 g ai/ha, scale 0 to 100)
50: Plant response rating, Lambsquarters ([6]; 62 g ai/ha, scale 0 to 100) | Plant response rating, Foxtail, Giant ([10]; 31 g ai/ha, scale 0 to 100) | Plant response rating, Waterhemp ([11]; 16 g ai/ha, scale 0 to 100)
30: Ryegrass, Italian plant response rating ([1]; 125 g ai/ha) | Plant response rating, Ragweed ([13]; 125 g ai/ha, scale of 0 to 100)
75: Plant response rating, Crabgrass, Large ([5]; 62 g ai/ha, scale of 0 to 100) | Plant response rating, Waterhemp ([11]; 31 g ai/ha, scale 0 to 100)
20: Ragweed plant response rating ([4]; 500 g ai/ha) | Plant response rating, Soybean (soybean (Glycine max); 31 g ai/ha, scale 0 to 100) | Plant response rating, Soybean (soybean (Glycine max); 62 g ai/ha, scale 0 to 100)
60: Plant response rating, Lambsquarters ([6]; 125 g ai/ha, scale of 0 to 100) | Plant response rating, Foxtail, Giant ([10]; 62 g ai/ha, scale of 0 to 100)
100: Foxtail, Giant plant response rating ([2]; 125 g ai/ha) | Foxtail, Giant plant response rating ([2]; 500 g ai/ha) | Pigweed plant response rating ([3]; 125 g ai/ha) | Pigweed plant response rating ([3]; 500 g ai/ha) | Plant response rating, Waterhemp ([11]; 125 g ai/ha, scale of 0 to 100)
0: Ragweed plant response rating ([4]; 125 g ai/ha) | Plant response rating, Crabgrass, Large ([5]; 16 g ai/ha, scale 0 to 100) | Plant response rating, Velvetleaf ([7]; 16 g ai/ha, scale 0 to 100) | Plant response rating, Oilseed Rape ([8]; 16 g ai/ha, scale 0 to 100) | Plant response rating, Oilseed Rape ([8]; 31 g ai/ha, scale 0 to 100) | Plant response rating, Oilseed Rape ([8]; 62 g ai/ha, scale 0 to 100) | Plant response rating, Morningglory ([9]; 125 g ai/ha, scale of 0 to 100) | Plant response rating, Morningglory ([9]; 16 g ai/ha, scale 0 to 100) | Plant response rating, Morningglory ([9]; 31 g ai/ha, scale 0 to 100) | Plant response rating, Morningglory ([9]; 62 g ai/ha, scale 0 to 100) | Plant response rating, Foxtail, Giant ([10]; 16 g ai/ha, scale 0 to 100) | Plant response rating, Blackgrass ([12]; 62 g ai/ha, scale of 0 to 100) | Plant response rating, Blackgrass ([12]; 16 g ai/ha, scale 0 to 100) | Plant response rating, Blackgrass ([12]; 31 g ai/ha, scale 0 to 100) | Plant response rating, Corn (corn (Zea mays); 125 g ai/ha, scale of 0 to 100) | Plant response rating, Corn (corn (Zea mays); 16 g ai/ha, scale 0 to 100) | Plant response rating, Corn (corn (Zea mays); 31 g ai/ha, scale 0 to 100) | Plant response rating, Ragweed ([13]; 16 g ai/ha, scale 0 to 100) | Plant response rating, Ragweed ([13]; 31 g ai/ha, scale 0 to 100) | Plant response rating, Ryegrass, Italian ([14]; 16 g ai/ha, scale 0 to 100) | Plant response rating, Ryegrass, Italian ([14]; 31 g ai/ha, scale 0 to 100) | Plant response rating, Ryegrass, Italian ([14]; 62 g ai/ha, scale 0 to 100) | Plant response rating, Wheat ([15]; 16 g ai/ha, scale 0 to 100) | Plant response rating, Wheat ([15]; 31 g ai/ha, scale 0 to 100) | Plant response rating, Nutsedge, Yellow ([16]; 125 g ai/ha, scale of 0 to 100) | Plant response rating, Nutsedge, Yellow ([16]; 16 g ai/ha, scale 0 to 100) | Plant response rating, Nutsedge, Yellow ([16]; 31 g ai/ha, scale 0 to 100) | Plant response rating, Nutsedge, Yellow ([16]; 62 g ai/ha, scale 0 to 100)
